Results as given in US9993494B2, “Compositions and methods for treating fibrotic disease” (eFFECTOR Therapeutics, Inc., priority 2014, dated 2018).

Tested on: normal human lung fibroblasts
Assay: Ribosomal profiling: translational efficiency in TGFβ-treated fibroblasts
Format: cell-based
Details: TGFβ-treated fibroblasts
Protocol: Ribosomal profiling allows for measurement of changes in transcription and translation on a genome-wide basis accompanying TGFβ-dependent transformation of fibroblasts to myofibroblasts. Ribosomal profiles of the TGFβ-treated fibroblasts from Example 1 (about 6×10^6 cells/10 cm plate) were prepared and analyzed for changes in translational efficiencies with respect to potential disease-associated cellular changes accompanying this TGFβ-induced transformation.
Briefly, cells were washed with cold PBS supplemented with cycloheximide and lysed with 1× mammalian cell lysis buffer for 10 minutes on ice. Lysates were clarified by centrifugation for 10 minutes at 14,000 rpm and supernatants were collected. Cell lysates were processed to generate ribosomal protected fragments and total mRNA according to the instructions included with the ARTseq Ribosome Profiling Kit (Illumina, San Diego, Calif.). Sequencing of total RNA (RNA) and of ribosome-protected fragments of RNA (RPF) was carried out using RNA-Seq methodology according to the manufacturer's instructions (Illumina). To analyze the ribosomal profiles, RNA-Seq reads were processed with tools from the FASTX-Toolkit (fastq_quality_trimmer, fastx_clipper and fastx_trimmer). Unprocessed and processed reads were evaluated for a variety of quality measures using FastQC, and processed reads were mapped to the human genome using TopHat (see, e.g., Trapnell et al., Bioinformatics 25:1105, 2009). Gene-by-gene assessment of the number of fragments strictly and uniquely mapping to the coding region of each gene was conducted using HTSeq-count, a component of the HTSeq package. […] Genes with low counts in either RPF or RNA were excluded from differential analyses. Pathway and network analyses of differential data were conducted using Ingenuity Pathway Analysis (IPA).

With `COC(=O)[C@H]1[C@@H](O)[C@@]2(O)c3c(OC)cc(O[C@@H]4O[C@@H]([C@H](O)CO)CO[C@H]4OC)cc3O[C@@]2(c2ccc(OC)cc2)[C@@H]1c1ccccc1` [Silvestrol] the “renormalizing the translational profile of LAMP5” value (ENSG00000125869) was “− (− = <0.9)”, the “renormalizing the translational profile of NECAB3” value (ENSG00000125967) was “− (− = <0.9)” and the “renormalizing the translational profile of COX7C” value (ENSG00000127184) was “− (− = <0.9)”. For the same compound, the “renormalizing the translational profile of LIF” value (ENSG00000128342) was “− (− = <0.9)”, the “renormalizing the translational profile of MTUS1” value (ENSG00000129422) was “− (− = <0.9)” and the “renormalizing the translational profile of ARHGEF6” value (ENSG00000129675) was “− (− = <0.9)”. For the same compound, the “renormalizing the translational profile of RPL36” value (ENSG00000130255) was “− (− = <0.9)”, the “renormalizing the translational profile of GDF15” value (ENSG00000130513) was “− (− = <0.9)” and the “renormalizing the translational profile of ASS1” value (ENSG00000130707) was “− (− = <0.9)”. The “renormalizing the translational profile of EIF2S3” value (ENSG00000130741) was “− (− = <0.9)”, the “renormalizing the translational profile of RPL27” value (ENSG00000131469) was “− (− = <0.9)” and the “renormalizing the translational profile of MATN3” value (ENSG00000132031) was “+ (+ = 0.9 to 1.5)”. The “renormalizing the translational profile of PPARG” value (ENSG00000132170) was “+++ (+++ = >2.0)”, the “renormalizing the translational profile of KDM6B” value (ENSG00000132510) was “+ (+ = 0.9 to 1.5)” and the “renormalizing the translational profile of RARRES3” value (ENSG00000133321) was “− (− = <0.9)”. For the same compound, the “renormalizing the translational profile of BIVM” value (ENSG00000134897) was “− (− = <0.9)”, the “renormalizing the translational profile of ATP5G2” value (ENSG00000135390) was “− (− = <0.9)” and the “renormalizing the translational profile of KRT7” value (ENSG00000135480) was “− (− = <0.9)”. The “renormalizing the translational profile of HNRNPA1” value (ENSG00000135486) was “− (− = <0.9)”, the “renormalizing the translational profile of IL6” value (ENSG00000136244) was “− (− = <0.9)” and the “renormalizing the translational profile of RPL35” value (ENSG00000136942) was “− (− = <0.9)”. For the same compound, the “renormalizing the translational profile of NOV” value (ENSG00000136999) was “− (− = <0.9)”, the “renormalizing the translational profile of IER3” value (ENSG00000137331) was “− (− = <0.9)” and the “renormalizing the translational profile of DDX60” value (ENSG00000137628) was “+ (+ = 0.9 to 1.5)”. The “renormalizing the translational profile of RPLP1” value (ENSG00000137818) was “− (− = <0.9)”, the “renormalizing the translational profile of PAQR5” value (ENSG00000137819) was “− (− = <0.9)” and the “renormalizing the translational profile of AOX1” value (ENSG00000138356) was “− (− = <0.9)”. The “renormalizing the translational profile of FGF5” value (ENSG00000138675) was “− (− = <0.9)”, the “renormalizing the translational profile of PDE5A” value (ENSG00000138735) was “− (− = <0.9)” and the “renormalizing the translational profile of GAS2L3” value (ENSG00000139354) was “+ (+ = 0.9 to 1.5)”. The “renormalizing the translational profile of DIAPH3” value (ENSG00000139734) was “− (− = <0.9)”, the “renormalizing the translational profile of MYO19” value (ENSG00000141140) was “+ (+ = 0.9 to 1.5)” and the “renormalizing the translational profile of RPL13A” value (ENSG00000142541) was “− (− = <0.9)”. The “renormalizing the translational profile of RPL11” value (ENSG00000142676) was “− (− = <0.9)”, the “renormalizing the translational profile of PLEKHA6” value (ENSG00000143850) was “− (− = <0.9)” and the “renormalizing the translational profile of RPL32” value (ENSG00000144713) was “− (− = <0.9)”. The “renormalizing the translational profile of RPL37” value (ENSG00000145592) was “− (− = <0.9)”, the “renormalizing the translational profile of BTF3” value (ENSG00000145741) was “− (− = <0.9)” and the “renormalizing the translational profile of HIGD2A” value (ENSG00000146066) was “− (− = <0.9)”. For the same compound, the “renormalizing the translational profile of CREB5” value (ENSG00000146592) was “− (− = <0.9)”, the “renormalizing the translational profile of DENND2A” value (ENSG00000146966) was “− (− = <0.9)” and the “renormalizing the translational profile of RPL10” value (ENSG00000147403) was “− (− = <0.9)”. The “renormalizing the translational profile of EIF3H” value (ENSG00000147677) was “− (− = <0.9)”, the “renormalizing the translational profile of RPL7A” value (ENSG00000148303) was “− (− = <0.9)” and the “renormalizing the translational profile of EIF3M” value (ENSG00000149100) was “− (− = <0.9)”. For the same compound, the “renormalizing the translational profile of FAU” value (ENSG00000149806) was “− (− = <0.9)”, the “renormalizing the translational profile of CCDC102B” value (ENSG00000150636) was “− (− = <0.9)” and the “renormalizing the translational profile of FRMD4A” value (ENSG00000151474) was “− (− = <0.9)”. The “renormalizing the translational profile of HOMER1” value (ENSG00000152413) was “+ (+ = 0.9 to 1.5)”, the “renormalizing the translational profile of PLEKHH2” value (ENSG00000152527) was “− (− = <0.9)” and the “renormalizing the translational profile of ANKH” value (ENSG00000154122) was “+ (+ = 0.9 to 1.5)”. For the same compound, the “renormalizing the translational profile of ABCA6” value (ENSG00000154262) was “++ (++ = 1.5 to 2.0)”, the “renormalizing the translational profile of OBSCN” value (ENSG00000154358) was “− (− = <0.9)” and the “renormalizing the translational profile of ADAMTS5” value (ENSG00000154736) was “+ (+ = 0.9 to 1.5)”. For the same compound, the “renormalizing the translational profile of OXA1L” value (ENSG00000155463) was “− (− = <0.9)”, the “renormalizing the translational profile of C9orf85” value (ENSG00000155621) was “− (− = <0.9)” and the “renormalizing the translational profile of RPL30” value (ENSG00000156482) was “− (− = <0.9)”. For the same compound, the “renormalizing the translational profile of EEF1A1” value (ENSG00000156508) was “− (− = <0.9)”, the “renormalizing the translational profile of NRG1” value (ENSG00000157168) was “+ (+ = 0.9 to 1.5)” and the “renormalizing the translational profile of RPL8” value (ENSG00000161016) was “− (− = <0.9)”. The “renormalizing the translational profile of RPL26” value (ENSG00000161970) was “− (− = <0.9)”, the “renormalizing the translational profile of RPL29” value (ENSG00000162244) was “− (− = <0.9)” and the “renormalizing the translational profile of CAMK2N1” value (ENSG00000162545) was “− (− = <0.9)”. For the same compound, the “renormalizing the translational profile of IGFBP7” value (ENSG00000163453) was “− (− = <0.9)” and the “renormalizing the translational profile of RPL22L1” value (ENSG00000163584) was “− (− = <0.9)”.
